Assay results taken from PMC4449328 (European neuropsychopharmacology : the journal of the …, 2014).

How the values were obtained:
D3 receptor [1] = target: T1, D3 receptor (Homo sapiens, UniProt P35462); assay: [3H]methylspiperone saturation binding; settings: 1 μM sulpiride (Fig. 6)
D3 dopamine receptor = D3 dopamine receptor (Homo sapiens, UniProt P35462); assay: β-arrestin recruitment assay; type: cell-based
D3 receptor [2] = target: T1, D3 receptor; settings: read-out: Ki±SEM; binding data previously reported; ref Newman et al. (2003); cited from earlier work

T1 sequence (P35462 whole entry): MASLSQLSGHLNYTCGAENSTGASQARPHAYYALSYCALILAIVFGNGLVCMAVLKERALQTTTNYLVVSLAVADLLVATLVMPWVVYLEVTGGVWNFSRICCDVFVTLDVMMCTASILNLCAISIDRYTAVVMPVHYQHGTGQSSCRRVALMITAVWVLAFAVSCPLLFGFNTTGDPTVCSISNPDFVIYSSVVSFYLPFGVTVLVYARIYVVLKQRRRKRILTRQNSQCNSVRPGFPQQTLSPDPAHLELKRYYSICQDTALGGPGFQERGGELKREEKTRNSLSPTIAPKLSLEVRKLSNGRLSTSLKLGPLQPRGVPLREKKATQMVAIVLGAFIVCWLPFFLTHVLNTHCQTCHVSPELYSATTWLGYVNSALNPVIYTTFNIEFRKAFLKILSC
Sequence of D3 dopamine receptor (P35462 whole entry): as above

Compound	Bmax of [3H]methylspiperone in presence of compound (D3 receptor [1])	Hill slope of Schild plot (D3 dopamine receptor; curve-shift of dopamine concentration response (Fig. 7), n=3–5, mean±SEM)	Hill slope of Schild plot (D3 dopamine receptor; curve-shift of dopamine concentration response (Fig. 11))	Ki (D3 receptor [2]) [pM]
CCN1CCCC1CNC(=O)c1cc(S(N)(=O)=O)ccc1OC (stereo not shown) [sulpiride]	6,190 fmol/mg	1.04±0.05	1.04±0.05	
O=C(NCCCCN1CCN(c2cccc(Cl)c2Cl)CC1)c1ccc(-c2ccccn2)cc1 [CJB 090]				600 ± 200
